Measured values published in PMC12477080, “Polychlorinated biphenyls (PCBs) interact with drug metabolism in vivo” (Archives of Toxicology, 2025).

Experiment: Stability of substrates and metabolites in quality control samples (benchtop, autosampler, freeze-thaw)
Format: physicochemical
Conditions: for Autosampler stability (24 h) Av. Accuracy (%): 10° C for 24 hours in the autosampler; for 3x freeze-thaw Av. Accuracy (%): after three freeze-thaw cycles; for Benchtop stability (19 h) Ac. Accuracy (%): room temperature for 19 hours
Description: The method was validated for intra- and interday accuracy and precision, stability, and matrix effects. […] Validation details are provided in Supplementary Tables 5–7 and supplemental Fig. 3. Glucuronidase/sulfatase digests were used to isolate CYP-specific metabolic activities, reducing interference from polymorphic UDP-glucuronosyltransferase (UGT) and sulfotransferase isoforms.
Supplemental table 6: Stability of the substrates and metabolites. Quality control samples were left at room temperature for 19 hours (benchtop stability) and at 10° C for 24 hours in the autosampler (autosampler stability) or were measured after three freeze-thaw cycles. Stability samples were measured against a freshly prepared set of calibrators and quality control samples.

O=C1Nc2ccc(Cl)cc2[C@@](C#CC2CC2)(C(F)(F)F)O1 [efavirenz, reference compound]
Autosampler stability (24 h) Av. Accuracy (%) (QC conc. 0,63 ng/ml): 109,58%
3x freeze-thaw Av. Accuracy (%) (QC conc. 0,63 ng/ml): 124,41%
Benchtop stability (19 h) Ac. Accuracy (%) (QC conc. 0,63 ng/ml): 92,21%
Autosampler stability (24 h) Av. Accuracy (%) (QC conc. 150 ng/ml): 115,3%
3x freeze-thaw Av. Accuracy (%) (QC conc. 150 ng/ml): 112,08%
Benchtop stability (19 h) Ac. Accuracy (%) (QC conc. 150 ng/ml): 111,5%
Autosampler stability (24 h) Av. Accuracy (%) (QC conc. 375 ng/ml): 106,16%
3x freeze-thaw Av. Accuracy (%) (QC conc. 375 ng/ml): 107,17%
Benchtop stability (19 h) Ac. Accuracy (%) (QC conc. 375 ng/ml): 104,9%
Autosampler stability (24 h) Av. Accuracy (%) (QC conc. 1,25 ng/ml): 114,46%
3x freeze-thaw Av. Accuracy (%) (QC conc. 1,25 ng/ml): 117,78%
Benchtop stability (19 h) Ac. Accuracy (%) (QC conc. 1,25 ng/ml): 102,48%
Autosampler stability (24 h) Av. Accuracy (%) (QC conc. 3,75 ng/ml): 114,56%
3x freeze-thaw Av. Accuracy (%) (QC conc. 3,75 ng/ml): 111,15%
Benchtop stability (19 h) Ac. Accuracy (%) (QC conc. 3,75 ng/ml): 107,06%

Cn1c(=O)c2c(ncn2C)n(C)c1=O [caffeine, reference compound]
3x freeze-thaw Av. Accuracy (%) (QC conc. 10 ng/ml): 107,62%
3x freeze-thaw Av. Accuracy (%) (QC conc. 30 ng/ml): 107,18%
3x freeze-thaw Av. Accuracy (%) (QC conc. 1200 ng/ml): 105,12%
3x freeze-thaw Av. Accuracy (%) (QC conc. 3000 ng/ml): 97,54%

Cc1ncc2n1-c1ccc(Cl)cc1C(c1ccccc1F)=NC2 [midazolam, reference compound]
Autosampler stability (24 h) Av. Accuracy (%) (QC conc. 0,1 ng/ml): 107,46%
3x freeze-thaw Av. Accuracy (%) (QC conc. 0,1 ng/ml): 104,96%
Benchtop stability (19 h) Ac. Accuracy (%) (QC conc. 0,1 ng/ml): 106,81%
Autosampler stability (24 h) Av. Accuracy (%) (QC conc. 0,3 ng/ml): 104,87%
3x freeze-thaw Av. Accuracy (%) (QC conc. 0,3 ng/ml): 98,61%
Benchtop stability (19 h) Ac. Accuracy (%) (QC conc. 0,3 ng/ml): 104,39%
Autosampler stability (24 h) Av. Accuracy (%) (QC conc. 0,05 ng/ml): 103,51%
3x freeze-thaw Av. Accuracy (%) (QC conc. 0,05 ng/ml): 109,93%
Benchtop stability (19 h) Ac. Accuracy (%) (QC conc. 0,05 ng/ml): 89,44%
Autosampler stability (24 h) Av. Accuracy (%) (QC conc. 12 ng/ml): 110,93%
3x freeze-thaw Av. Accuracy (%) (QC conc. 12 ng/ml): 103,85%
Benchtop stability (19 h) Ac. Accuracy (%) (QC conc. 12 ng/ml): 109,38%
Autosampler stability (24 h) Av. Accuracy (%) (QC conc. 30 ng/ml): 99,76%
3x freeze-thaw Av. Accuracy (%) (QC conc. 30 ng/ml): 97,41%
Benchtop stability (19 h) Ac. Accuracy (%) (QC conc. 30 ng/ml): 99,8%

O=C1Nc2c(O)cc(Cl)cc2[C@@](C#CC2CC2)(C(F)(F)F)O1 [8-OH-efavirenz]
Autosampler stability (24 h) Av. Accuracy (%) (QC conc. 0,5 ng/ml): 86,73%
3x freeze-thaw Av. Accuracy (%) (QC conc. 0,5 ng/ml): 84,9%
Benchtop stability (19 h) Ac. Accuracy (%) (QC conc. 0,5 ng/ml): 74,06%
Autosampler stability (24 h) Av. Accuracy (%) (QC conc. 0,25 ng/ml): 86,81%
3x freeze-thaw Av. Accuracy (%) (QC conc. 0,25 ng/ml): 84,61%
Benchtop stability (19 h) Ac. Accuracy (%) (QC conc. 0,25 ng/ml): 69,5%
Autosampler stability (24 h) Av. Accuracy (%) (QC conc. 60 ng/ml): 86,15%
3x freeze-thaw Av. Accuracy (%) (QC conc. 60 ng/ml): 79,98%
Benchtop stability (19 h) Ac. Accuracy (%) (QC conc. 60 ng/ml): 77,52%
Autosampler stability (24 h) Av. Accuracy (%) (QC conc. 150 ng/ml): 78,85%
3x freeze-thaw Av. Accuracy (%) (QC conc. 150 ng/ml): 77,49%
Benchtop stability (19 h) Ac. Accuracy (%) (QC conc. 150 ng/ml): 74,14%
Autosampler stability (24 h) Av. Accuracy (%) (QC conc. 1,5 ng/ml): 88,49%
3x freeze-thaw Av. Accuracy (%) (QC conc. 1,5 ng/ml): 79,73%
Benchtop stability (19 h) Ac. Accuracy (%) (QC conc. 1,5 ng/ml): 76,61%

COc1ccc2nc([S+]([O-])Cc3ncc(CO)c(OC)c3C)[nH]c2c1 (stereo not shown) [5-OH-omeprazole]
Autosampler stability (24 h) Av. Accuracy (%) (QC conc. 0,5 ng/ml): 112,52%
3x freeze-thaw Av. Accuracy (%) (QC conc. 0,5 ng/ml): 105,73%
Benchtop stability (19 h) Ac. Accuracy (%) (QC conc. 0,5 ng/ml): 95,94%
Autosampler stability (24 h) Av. Accuracy (%) (QC conc. 0,25 ng/ml): 90,94%
3x freeze-thaw Av. Accuracy (%) (QC conc. 0,25 ng/ml): 101,98%
Benchtop stability (19 h) Ac. Accuracy (%) (QC conc. 0,25 ng/ml): 99,1%
Autosampler stability (24 h) Av. Accuracy (%) (QC conc. 60 ng/ml): 104,61%
3x freeze-thaw Av. Accuracy (%) (QC conc. 60 ng/ml): 99,23%
Benchtop stability (19 h) Ac. Accuracy (%) (QC conc. 60 ng/ml): 99,68%
Autosampler stability (24 h) Av. Accuracy (%) (QC conc. 150 ng/ml): 97,73%
3x freeze-thaw Av. Accuracy (%) (QC conc. 150 ng/ml): 100,57%
Benchtop stability (19 h) Ac. Accuracy (%) (QC conc. 150 ng/ml): 92,79%
Autosampler stability (24 h) Av. Accuracy (%) (QC conc. 1,5 ng/ml): 102,58%
3x freeze-thaw Av. Accuracy (%) (QC conc. 1,5 ng/ml): 103,03%
Benchtop stability (19 h) Ac. Accuracy (%) (QC conc. 1,5 ng/ml): 98,98%

COCCc1ccc(OCC(O)CNC(C)C)cc1 (stereo not shown) [metoprolol, reference compound]
Autosampler stability (24 h) Av. Accuracy (%) (QC conc. 0,5 ng/ml): 105,36%
3x freeze-thaw Av. Accuracy (%) (QC conc. 0,5 ng/ml): 109,56%
Benchtop stability (19 h) Ac. Accuracy (%) (QC conc. 0,5 ng/ml): 106,29%
Autosampler stability (24 h) Av. Accuracy (%) (QC conc. 0,25 ng/ml): 105,01%
3x freeze-thaw Av. Accuracy (%) (QC conc. 0,25 ng/ml): 99,7%
Benchtop stability (19 h) Ac. Accuracy (%) (QC conc. 0,25 ng/ml): 92,77%
Autosampler stability (24 h) Av. Accuracy (%) (QC conc. 60 ng/ml): 111,39%
3x freeze-thaw Av. Accuracy (%) (QC conc. 60 ng/ml): 105,26%
Benchtop stability (19 h) Ac. Accuracy (%) (QC conc. 60 ng/ml): 110,41%
Autosampler stability (24 h) Av. Accuracy (%) (QC conc. 150 ng/ml): 100,37%
3x freeze-thaw Av. Accuracy (%) (QC conc. 150 ng/ml): 98,84%
Benchtop stability (19 h) Ac. Accuracy (%) (QC conc. 150 ng/ml): 102,76%
Autosampler stability (24 h) Av. Accuracy (%) (QC conc. 1,5 ng/ml): 112,83%
3x freeze-thaw Av. Accuracy (%) (QC conc. 1,5 ng/ml): 103,63%
Benchtop stability (19 h) Ac. Accuracy (%) (QC conc. 1,5 ng/ml): 111,4%

OCc1ncc2n1-c1ccc(Cl)cc1C(c1ccccc1F)=NC2 [1-OH-midazolam]
Autosampler stability (24 h) Av. Accuracy (%) (QC conc. 0,2 ng/ml): 102,59%
3x freeze-thaw Av. Accuracy (%) (QC conc. 0,2 ng/ml): 108,6%
Benchtop stability (19 h) Ac. Accuracy (%) (QC conc. 0,2 ng/ml): 82,15%
Autosampler stability (24 h) Av. Accuracy (%) (QC conc. 0,6 ng/ml): 107,25%
3x freeze-thaw Av. Accuracy (%) (QC conc. 0,6 ng/ml): 109,36%
Benchtop stability (19 h) Ac. Accuracy (%) (QC conc. 0,6 ng/ml): 102,06%
Autosampler stability (24 h) Av. Accuracy (%) (QC conc. 24 ng/ml): 113,74%
3x freeze-thaw Av. Accuracy (%) (QC conc. 24 ng/ml): 106,45%
Benchtop stability (19 h) Ac. Accuracy (%) (QC conc. 24 ng/ml): 112,46%
Autosampler stability (24 h) Av. Accuracy (%) (QC conc. 60 ng/ml): 105,87%
3x freeze-thaw Av. Accuracy (%) (QC conc. 60 ng/ml): 100,47%
Benchtop stability (19 h) Ac. Accuracy (%) (QC conc. 60 ng/ml): 105,11%

CC(C)NC(=O)NS(=O)(=O)c1cnccc1Nc1cccc(CO)c1 [OH-torsemide]
Autosampler stability (24 h) Av. Accuracy (%) (QC conc. 1 ng/ml): 109,17%
3x freeze-thaw Av. Accuracy (%) (QC conc. 1 ng/ml): 105,26%
Benchtop stability (19 h) Ac. Accuracy (%) (QC conc. 1 ng/ml): 106,91%
Autosampler stability (24 h) Av. Accuracy (%) (QC conc. 2 ng/ml): 113,11%
3x freeze-thaw Av. Accuracy (%) (QC conc. 2 ng/ml): 105,85%
Benchtop stability (19 h) Ac. Accuracy (%) (QC conc. 2 ng/ml): 107,98%
Autosampler stability (24 h) Av. Accuracy (%) (QC conc. 6 ng/ml): 109,32%
3x freeze-thaw Av. Accuracy (%) (QC conc. 6 ng/ml): 107,78%
Benchtop stability (19 h) Ac. Accuracy (%) (QC conc. 6 ng/ml): 111,3%
Autosampler stability (24 h) Av. Accuracy (%) (QC conc. 240 ng/ml): 108,82%
3x freeze-thaw Av. Accuracy (%) (QC conc. 240 ng/ml): 104,11%
Benchtop stability (19 h) Ac. Accuracy (%) (QC conc. 240 ng/ml): 106,75%
Autosampler stability (24 h) Av. Accuracy (%) (QC conc. 600 ng/ml): 99,55%
3x freeze-thaw Av. Accuracy (%) (QC conc. 600 ng/ml): 96,28%
Benchtop stability (19 h) Ac. Accuracy (%) (QC conc. 600 ng/ml): 99,14%
